Literature values as cited in patent publication US20250161269A1 (Celmatix Inc., priority 2022, published 2025).
Where two headings read alike, the source gives them in different places.

Key:
5-HT2B receptor = 5-HT2B receptor (Homo sapiens, UniProt P41595); details: antagonist; cited from earlier work
[1] = in vivo; cited from earlier work
serum albumin = serum albumin (Homo sapiens, UniProt P02768); details: peripheral circulation; cited from earlier work
PCOS patients = PCOS patients or patients with metabolic disturbances; cited from earlier work
endometriosis patients = details: cited from earlier work
endometriosis lesion = details: animals; cited from earlier work
PCOS animal models = details: cited from earlier work
[2] = tested on: chemotherapy tissue damage animal models; details: cited from earlier work
[3] = tested on: macrophages (RAW264.7 or primary cells); details: macrophages treated with LPS; cited from earlier work
MT1 [4] = molecular target: T1, MT1 (Homo sapiens, UniProt P48039); details: cited from earlier work
T1 sequence (P48039 whole entry): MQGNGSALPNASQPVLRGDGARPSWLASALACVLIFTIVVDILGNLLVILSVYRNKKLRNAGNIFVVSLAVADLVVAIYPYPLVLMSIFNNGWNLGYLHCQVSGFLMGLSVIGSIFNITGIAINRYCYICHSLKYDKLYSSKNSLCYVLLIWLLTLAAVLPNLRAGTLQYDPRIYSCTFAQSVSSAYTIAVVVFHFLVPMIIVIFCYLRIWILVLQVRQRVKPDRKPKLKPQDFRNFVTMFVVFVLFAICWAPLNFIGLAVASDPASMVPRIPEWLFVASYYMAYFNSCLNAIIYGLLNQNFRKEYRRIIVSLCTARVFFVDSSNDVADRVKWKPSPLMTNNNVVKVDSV

MT2 [5] = molecular target: T2, MT2 (Homo sapiens, UniProt P49286); details: cited from earlier work
T2 sequence (P49286 1-362): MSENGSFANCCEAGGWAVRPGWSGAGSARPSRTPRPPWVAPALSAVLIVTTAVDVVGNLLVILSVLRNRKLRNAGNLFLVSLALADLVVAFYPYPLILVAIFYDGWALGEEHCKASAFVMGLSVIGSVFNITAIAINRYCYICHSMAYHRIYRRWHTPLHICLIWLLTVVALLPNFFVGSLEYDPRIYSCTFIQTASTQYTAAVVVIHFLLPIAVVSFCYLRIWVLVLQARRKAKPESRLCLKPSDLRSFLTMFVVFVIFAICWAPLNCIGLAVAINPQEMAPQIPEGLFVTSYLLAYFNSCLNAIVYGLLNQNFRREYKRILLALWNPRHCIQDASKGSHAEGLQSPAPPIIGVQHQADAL

MT1 [6] = molecular target: T1, MT1; parameters: host or cells: CHO-K1 cells (as the earlier reading words it); details: CHO-K1 cells; cited from earlier work
MT2 [7] = molecular target: T2, MT2; parameters: host or cells: CHO-K1 cells (as the earlier reading words it); details: CHO-K1 cells; cited from earlier work
MT1 [8] = molecular target: T1, MT1; details: NIH-3T3 cells; cited from earlier work

Sequence of serum albumin (P02768 25-609): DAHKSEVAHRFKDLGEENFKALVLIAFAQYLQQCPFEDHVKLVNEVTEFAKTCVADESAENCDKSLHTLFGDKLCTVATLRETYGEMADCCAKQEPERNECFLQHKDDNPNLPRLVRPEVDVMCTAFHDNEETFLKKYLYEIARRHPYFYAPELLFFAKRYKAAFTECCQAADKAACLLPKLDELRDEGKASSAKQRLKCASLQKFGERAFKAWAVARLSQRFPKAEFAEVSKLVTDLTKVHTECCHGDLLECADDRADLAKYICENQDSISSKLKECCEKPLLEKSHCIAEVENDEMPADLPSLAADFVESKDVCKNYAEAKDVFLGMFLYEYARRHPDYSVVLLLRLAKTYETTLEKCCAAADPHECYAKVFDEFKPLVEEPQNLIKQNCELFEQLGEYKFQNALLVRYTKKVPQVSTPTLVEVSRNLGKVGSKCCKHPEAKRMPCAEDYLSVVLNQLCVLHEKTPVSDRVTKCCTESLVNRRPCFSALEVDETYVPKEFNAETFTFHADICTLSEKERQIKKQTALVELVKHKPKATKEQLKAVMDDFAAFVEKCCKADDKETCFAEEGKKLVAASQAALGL
Sequence of 5-HT2B receptor (P41595 whole entry): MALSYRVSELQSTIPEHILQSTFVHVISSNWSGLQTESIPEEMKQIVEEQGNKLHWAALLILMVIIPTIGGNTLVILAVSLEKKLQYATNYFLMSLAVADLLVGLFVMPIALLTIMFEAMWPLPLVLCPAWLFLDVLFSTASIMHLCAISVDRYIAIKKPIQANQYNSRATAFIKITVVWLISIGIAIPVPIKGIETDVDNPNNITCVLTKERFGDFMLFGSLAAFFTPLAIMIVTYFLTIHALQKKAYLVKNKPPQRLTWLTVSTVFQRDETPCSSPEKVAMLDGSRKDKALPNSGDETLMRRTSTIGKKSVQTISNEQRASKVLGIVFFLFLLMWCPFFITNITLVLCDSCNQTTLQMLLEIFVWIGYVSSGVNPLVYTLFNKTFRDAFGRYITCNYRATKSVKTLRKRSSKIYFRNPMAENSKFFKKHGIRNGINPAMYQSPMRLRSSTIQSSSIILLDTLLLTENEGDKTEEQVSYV

In the case of COc1ccc2cccc(CCNC(C)=O)c2c1 [Agomelatine], the Ki (5-HT2B receptor) is given as 660 nM.
For COc1ccc2[nH]cc(CCNC(C)=O)c2c1 [Melatonin, N-acetyl-5-methoxytryptamine], the “half-life inside the body” value [1] is listed as 20 to 40 min, the “bound to serum albumin” value (serum albumin) is listed as “approximately 70%” and the “effect on hyperandrogenism, inflammation, ART outcome, and metabolic function” value (PCOS patients) is listed as “beneficial effect”. The “effect on pelvic pain” value (endometriosis patients) was “beneficial effect”, the endometriosis lesion regression (endometriosis lesion) was “promotes endometriosis lesion regression” and the “metabolic and reproductive traits” value (PCOS animal models) was “improve metabolic and reproductive traits”. The “metabolic and reproductive traits” value [2] was “mitigate and protect metabolic and reproductive traits” and the “LPS-induced expression of pro-inflammatory molecules (e.g. TNFα, IL1B, IL6, IL8)” value [3] was “reduces their LPS-induced expression”.
In the case of COc1ccc2[nH]cc(CCNC(=O)c3cc(=O)cco3)c2c1 [Piromelatine], the Ki (MT1 [4]) is listed as 0.022 nM and the Ki (MT2 [5]) is listed as 0.034 nM.
In the case of CCC(=O)NCC[C@@H]1CCc2ccc3c(c21)CCO3 [Ramelteon], the Ki (MT2 [5]) is given as 0.11 nM, the Ki (MT1 [6]) is given as 0.118 nM and the Ki (MT2 [7]) is given as 0.115 nM.
In the case of COc1cc2c(C(C)CNC(C)=O)c[nH]c2cc1Cl (stereo not drawn) [TIK-301, beta-methyl-6-chloromelatonin], the Ki (MT1 [4]) is given as 0.081 nM and the Ki (MT2 [5]) is given as 0.042 nM.
For CCC(=O)NC[C@@H]1C[C@H]1c1cccc2c1CCO2 [Tasimelteon], the Ki (MT1 [4]) is listed as 0.3 nM, the Ki (MT1 [8]) is listed as 0.304 nM and the Ki (MT1 [6]) is listed as 0.35 nM. The Ki (MT2 [7]) was 0.17 nM.
